PMC12320293 (2025)

Tests used:
[1] = system: miR-31 hairpin (pre-miR-31 residues 20-52) (RNA, miRNA) GGCAUAGCUGUUGAACUGGGAACCUGCUAUGCC; assay: 1H-13C HSQC NMR titration (chemical shift perturbation); conditions: KH2PO4 50 mM (500 mM in Methods), Mg2+ 1 mM, apparent, pH 7.5, 2% DMSO, 10% D2O, 37 °C
[2] = system: miR-31 hairpin (pre-miR-31 residues 20-52) (RNA, miRNA) GGCAUAGCUGUUGAACUGGGAACCUGCUAUGCC; assay: STD-NMR; conditions: KH2PO4 50 mM (500 mM in Methods), Mg2+ 1 mM, 10 μM RNA, 200 μM ligand
[3] = system: miR-31 hairpin (pre-miR-31 residues 20-52) (RNA, miRNA) GGCAUAGCUGUUGAACUGGGAACCUGCUAUGCC; assay: fluorescent indicator displacement; conditions: KH2PO4 50 mM (500 mM in Methods), Mg2+ 1 mM, 100 μM compound, 50.9 nM RNA; for binding: TO-PRO-1 500 nM displaced by >15%; for % TO-PRO-1 displaced: TO-PRO-1 500 nM displaced
[4] = system: miR-31 hairpin (pre-miR-31 residues 20-52) (RNA, miRNA) GGCAUAGCUGUUGAACUGGGAACCUGCUAUGCC; assay: 1H-13C HSQC NMR titration (peak volumes); conditions: KH2PO4 50 mM (500 mM in Methods), Mg2+ 1 mM, apparent, pH 7.5, 2% DMSO, 10% D2O, 37 °C, 100 μM RNA
[5] = system: miR-31 hairpin (pre-miR-31 residues 20-52) (RNA, miRNA) GGCAUAGCUGUUGAACUGGGAACCUGCUAUGCC; assay: 1H-13C HSQC NMR; conditions: KH2PO4 50 mM (500 mM in Methods), Mg2+ 1 mM; ND: no observable change at 10-fold ligand excess; 37 °C
[6] = system: miR-31 hairpin (pre-miR-31 residues 20-52) (RNA, miRNA) GGCAUAGCUGUUGAACUGGGAACCUGCUAUGCC; assay: fluorescence titration of dye with RNA; conditions: KH2PO4 50 mM (500 mM in Methods), Mg2+ 1 mM; 500 nM TO-PRO-1, RNA 0-20 μM, pH 7.5, 2% DMSO, room temperature

Nc1ccccc1-c1nc2cnccc2[nH]1
KD ([1]; no saturation at 1 mM): > >1000 μM
binding ([2]; pH 7.5, 25 °C, not detected by FID at 100 μM): yes

Nc1cc(Nc2ccc(Br)cc2)nc(N)n1
binding [3]: yes
KD [1]: > >1000 μM
binding ([2]; pH 7.5, 2% DMSO, 25 °C): yes

Nc1ccc(-c2nc3cncc(N)c3[nH]2)c(O)c1
% TO-PRO-1 displaced ([3]; 2% DMSO, room temperature): 28.6 ± 0.4%
KD ([4]; excess ligand non-specific): 29.10 ± 0.15 µM

Cc1cccc(Nc2nc(N)nc(N)c2C#N)c1
% TO-PRO-1 displaced ([3]; below 15% hit criterion): 7.6 ± 2.7%
binding [5]: weak
binding ([2]; pH 7.5, 25 °C): weak

C[n+]1c(C=C2C=CN(CCC[N+](C)(C)C)c3ccccc32)sc2ccccc21
KD [6]: 0.46 ± 0.06 µM

Nc1nc(N)c2c(ccc3[nH]ccc32)n1
binding [3]: yes
KD ([4]; non-specific at 10-fold excess): 20.64 ± 9.40 µM

COc1ccc(Nc2nc(N)nc(N)c2C#N)cc1
% TO-PRO-1 displaced ([3]; below 15% hit criterion): 7.6 ± 1.8%
binding [5]: weak
binding ([2]; pH 7.5, 25 °C): weak
